Assay results from patent publication US12171748B2, “Nitroimidazole formulations” (priority 2018, dated 2024).
Counter-ions that a name gives are not always drawn.

Key:
[1] = tested on: ribotype 027 C. difficile strain (M7404); test: In vivo mouse trial; design: species or system C57BL6/J mice
Procedure: Groups of five, six week old, male, C57BL6/J mice were pre-treated with an antibiotic cocktail in the drinking water containing kanamycin (0.4 mg/ml), gentamicin (0.035 mg/ml), colistin (850 U/ml), metronidazole (0.215 mg/ml), vancomycin (0.045 mg/ml) and cefaclor (0.3 mg/ml) for 7 days, followed by three days of cefaclor alone. These antibiotics disrupt the resident microbiota and induce susceptibility to infection with Clostridium difficile. On the day of infection, antibiotic pre-treatment was ceased and mice were switched to plain drinking water prior to infection with a ribotype 027 C. difficile strain (M7404) at a dose of 10^5 spores/mouse by oral gavage. Eight hours post-infection, mice were orally administered 100 ul of the respective treatments, followed by the immediate addition of the treatment to the drinking water. The treatments were replenished fresh daily. The mice were monitored twice daily for signs of infection and faecal samples were analysed by microbiological techniques for the presence of C. difficile spores. Mice were humanely killed when they reached ethical endpoints, which include 10% acute weight loss (in the first 24 hours) or 15% chronic weight loss.

[2] = tested on: 6 strains of C. difficile; test: Checkerboard assay for antibiotic combinations; type: cell-based, Clostridium difficile; design: unit not given here
Procedure: The three combinations below were tested vs. 6 strains of C. difficile following the experimental protocols and synergy calculations set out in Magi et al. 2015. • Berberine+Metronidazole • Berberine+Vancomycin • Metronidazole+Vancomycin
In accordance with Magi et al. 2015, synergy is calculated using the equation below: ΣFIC=FICA+FICB=MICA (combine)/MICA (alone)+MICB (combine)/MICB (alone)
When ΣFIC≤0.5, synergy is observed.

[3] = cited from earlier work; for solubility in hot/boiling ethanol: hot or boiling ethanol; for solubility in hot/boiling water: hot or boiling water
[4] = tested on: six strains of C. difficile; test: MIC/MBC of compounds against six strains of C. difficile; type: cell-based, Clostridium difficile; details: vs. the six strains
Procedure: Eleven natural compounds, metronidazole and a positive control, vancomycin, were tested against six strains of C. difficile as shown in Table 4. […] The eleven natural compounds, or combinations, tested were: • 1. […] Matrine • 6. […] Andrographolide • 8. […] The natural compounds, metronidazole and vancomycin were obtained from commercial sources, e.g. Sigma-Aldrich.

[5] = cited from earlier work
[6] = single agent 50 mg/kg, oral and drinking water, infected mice

COc1ccc2cc3[n+](cc2c1OC)CCc1cc2c(cc1-3)OCO2 [Berb]
survival time of mice ([1]; either 25 mg/kg or 50 mg/kg): did not increase the survival time
survival D0 ([1]; single agent 25 mg/kg): 100%
survival D1 ([1]; single agent 25 mg/kg): 0%
survival D1½ ([1]; single agent 25 mg/kg): 0%
survival D1¾ ([1]; single agent 25 mg/kg): 0%
survival D2 ([1]; single agent 25 mg/kg): 0%
survival D3 ([1]; single agent 25 mg/kg): 0%
survival D4 ([1]; single agent 25 mg/kg): 0%
survival D1 ([1]; single agent 50 mg/kg): 20%
survival D1½ ([1]; single agent 50 mg/kg): 0%
survival D1¾ ([1]; single agent 50 mg/kg): 0%
survival D2 ([1]; single agent 50 mg/kg): 0%
survival D3 ([1]; single agent 50 mg/kg): 0%
survival D4 ([1]; single agent 50 mg/kg): 0%
survival D0 [1, 6]: 100%
MICBerb (alone) ([2]; Replicate 1): 1024
MICBerb (combine) ([2]; Replicate 1, pair 128, 0.5): 128
MICBerb (alone) ([2]; Replicate 2): 512
MICBerb (combine) ([2]; Replicate 2, pair 128, 0.5): 128

O=C1C=CC2(CCC23C=CC(=O)O3)O1 (stereo not shown) [Anemonin]
solubility in cold water ([3]; cold water): slightly soluble
solubility in hot/boiling ethanol [3]: soluble
solubility in hot/boiling water [3]: soluble

CN[C@H](CC(C)C)C(=O)N[C@H]1C(=O)N[C@@H](CC(N)=O)C(=O)N[C@H]2C(=O)N[C@H]3C(=O)N[C@H](C(=O)N[C@H](C(=O)O)c4cc(O)cc(O)c4-c4cc3ccc4O)[C@H](O)c3ccc(c(Cl)c3)Oc3cc2cc(c3O[C@@H]2O[C@H](CO)[C@@H](O)[C@H](O)[C@H]2O[C@H]2C[C@](C)(N)[C@H](O)[C@H](C)O2)Oc2ccc(cc2Cl)[C@H]1O [Vancomycin]
MBC range [4]: ≥ 1 µg/mL

O=C(O)[C@H]1O[C@@H](Oc2cc3oc(-c4ccccc4)cc(=O)c3c(O)c2O)[C@H](O)[C@@H](O)[C@@H]1O [Baicalin]
stability in alkaline environment [5]: unstable
solubility in N,N-dimethylformamide ([3]; N,N-dimethylformamide): diffluent
solubility in alkaline solution ([3]; alkaline solution, such as sodium bicarbonate, sodium carbonate, sodium hydroxide): soluble
solubility in water [3]: almost insoluble

Cc1ncc([N+](=O)[O-])n1CCO [Metronidazole, 2-methyl-5-nitroimidazole-1-ethanol]
mice survived to the end of the experiment (day 4) ([1]; Metronidazole (50 mg/kg) group): 1/5
survival compared to untreated mice ([1]; either 25 mg/kg or 50 mg/kg): no statistical difference in survival
survival D0 ([1]; single agent 25 mg/kg): 100%
survival D1 ([1]; single agent 25 mg/kg): 60%
survival D1½ ([1]; single agent 25 mg/kg): 20%
survival D1¾ ([1]; single agent 25 mg/kg): 20%
survival D2 ([1]; single agent 25 mg/kg): 0%
survival D3 ([1]; single agent 25 mg/kg): 0%
survival D4 ([1]; single agent 25 mg/kg): 0%
survival D1 ([1]; single agent 50 mg/kg): 100%
survival D1½ ([1]; single agent 50 mg/kg): 100%
survival D1¾ ([1]; single agent 50 mg/kg): 100%
survival D2 ([1]; single agent 50 mg/kg): 20%
survival D3 ([1]; single agent 50 mg/kg): 20%
survival D4 ([1]; single agent 50 mg/kg): 20%
survival D0 [1, 6]: 100%
MICMet (alone) ([2]; Replicate 1): 1
MICMet (combine) ([2]; Replicate 1, pair 128, 0.5): 0.5
MICMet (combine) ([2]; Replicate 1, pair 256, 0.25): 0.25
MICMet (combine) ([2]; Replicate 1, pair 256, 0.5): 0.5
MICMet (alone) ([2]; Replicate 2): 2
MICMet (combine) ([2]; Replicate 2, pair 128, 0.5): 0.5
MICMet (combine) ([2]; Replicate 2, pair 256, 0.25): 0.25
MICMet (combine) ([2]; Replicate 2, pair 256, 0.5): 0.5

COc1cc2c(cc1OC)-c1cc3ccc(OC)c(OC)c3c[n+]1CC2 [Palmatine chloride]
solubility in ethanol [3]: slightly soluble
solubility in hot/boiling water [3]: soluble
solubility in water [3]: sparingly soluble

COC(=O)C1=CCCN(C)C1 [arecoline hydrobromide]
solubility in ethanol [3]: diffluent
solubility in water [3]: diffluent

C=C1CC[C@@H]2[C@](C)(CO)[C@H](O)CC[C@@]2(C)[C@@H]1C/C=C1/C(=O)OC[C@H]1O [Andrographolide]
solubility in ethanol at ambient temperature ([3]; ethanol at ambient temperature): poorly soluble
solubility in hot/boiling ethanol [3]: soluble
solubility in water [3]: almost insoluble

COC(=O)C1=CCCN(C)C1 [Arecoline]
solubility in ethanol [3]: produces a solution
solubility in water [3]: produces a solution
